Experiment: xn = mol fraction of the nth substance listed
Settings: 100 kPa, Liquid; for viscosity: Capillary tube (Ostwald / Ubbelohde) method; for mass density: Vibrating tube method

CC1CC(=O)O1 (stereo not drawn) [4-methyl-2-oxetanone] + CCCC[n+]1ccn(C)c1.O=S(=O)([N-]S(=O)(=O)C(F)(F)F)C(F)(F)F
Settings | mass density [kg/m3] | viscosity [mPa·s]
293.15 K, x2 = 0 | 1055.93 | 1.68
293.15 K, x2 = 0.0493 | 1119.77 | 2.14
293.15 K, x2 = 0.1001 | 1167.52 | 2.75
293.15 K, x2 = 0.1526 | 1207.48 | 3.44
293.15 K, x2 = 0.2001 | 1240.41 | 4.75
293.15 K, x2 = 0.3001 | 1291.51 | 7.22
293.15 K, x2 = 0.4013 | 1329.17 | 10.69
293.15 K, x2 = 0.5004 | 1358.85 | 15.69
293.15 K, x2 = 0.5995 | 1382.95 | 22.26
293.15 K, x2 = 0.6929 | 1401.02 | 29.27
293.15 K, x2 = 0.814 | 1415.81 | 40.15
293.15 K, x2 = 0.9001 | 1434.72 | 50.31
298.15 K, x2 = 0 | 1050.68 | 1.55
298.15 K, x2 = 0.0493 | 1114.58 | 1.97
298.15 K, x2 = 0.1001 | 1162.33 | 2.52
298.15 K, x2 = 0.1526 | 1202.28 | 3.17
298.15 K, x2 = 0.2001 | 1235.24 | 4.38
298.15 K, x2 = 0.3001 | 1286.4 | 6.59
298.15 K, x2 = 0.4013 | 1324.12 | 9.61
298.15 K, x2 = 0.5004 | 1353.84 | 13.44
298.15 K, x2 = 0.5995 | 1377.94 | 18.55
298.15 K, x2 = 0.6929 | 1396.05 | 24.32
298.15 K, x2 = 0.814 | 1410.84 | 32.91
298.15 K, x2 = 0.9001 | 1429.79 | 41.25
303.15 K, x2 = 0 | 1045.31 | 1.48
303.15 K, x2 = 0.0493 | 1109.25 | 1.83
303.15 K, x2 = 0.1001 | 1157.05 | 2.3
303.15 K, x2 = 0.1526 | 1197 | 2.98
303.15 K, x2 = 0.2001 | 1229.97 | 3.9
303.15 K, x2 = 0.3001 | 1281.21 | 5.87
303.15 K, x2 = 0.4013 | 1318.98 | 8.14
303.15 K, x2 = 0.5004 | 1348.71 | 11.56
303.15 K, x2 = 0.5995 | 1372.86 | 15.74
303.15 K, x2 = 0.6929 | 1390.95 | 20.81
303.15 K, x2 = 0.814 | 1405.72 | 27.46
303.15 K, x2 = 0.9001 | 1424.69 | 34.24
308.15 K, x2 = 0 | 1039.85 | 1.4
308.15 K, x2 = 0.0493 | 1103.89 | 1.73
308.15 K, x2 = 0.1001 | 1151.73 | 2.13
308.15 K, x2 = 0.1526 | 1191.76 | 2.78
308.15 K, x2 = 0.2001 | 1224.72 | 3.51
308.15 K, x2 = 0.3001 | 1276.02 | 5.33
308.15 K, x2 = 0.4013 | 1313.79 | 7.28
308.15 K, x2 = 0.5004 | 1343.59 | 10.05
308.15 K, x2 = 0.5995 | 1367.78 | 13.61
308.15 K, x2 = 0.6929 | 1385.91 | 17.63
308.15 K, x2 = 0.814 | 1400.7 | 23.24
308.15 K, x2 = 0.9001 | 1419.71 | 28.09
313.15 K, x2 = 0 | 1034.33 | 1.33
313.15 K, x2 = 0.0493 | 1098.48 | 1.63
313.15 K, x2 = 0.1001 | 1146.34 | 1.99
313.15 K, x2 = 0.1526 | 1186.34 | 2.55
313.15 K, x2 = 0.2001 | 1219.4 | 3.21
313.15 K, x2 = 0.3001 | 1270.76 | 4.72
313.15 K, x2 = 0.4013 | 1308.61 | 6.41
313.15 K, x2 = 0.5004 | 1338.44 | 8.82
313.15 K, x2 = 0.5995 | 1362.65 | 11.75
313.15 K, x2 = 0.6929 | 1380.83 | 15.03
313.15 K, x2 = 0.814 | 1395.6 | 19.76
313.15 K, x2 = 0.9001 | 1414.64 | 23.76
318.15 K, x2 = 0 | 1028.79 | 1.25
318.15 K, x2 = 0.0493 | 1093.01 | 1.53
318.15 K, x2 = 0.1001 | 1140.96 | 1.86
318.15 K, x2 = 0.1526 | 1181.02 | 2.36
318.15 K, x2 = 0.2001 | 1214.09 | 2.94
318.15 K, x2 = 0.3001 | 1265.51 | 4.23
318.15 K, x2 = 0.4013 | 1303.39 | 5.76
318.15 K, x2 = 0.5004 | 1333.28 | 7.74
318.15 K, x2 = 0.5995 | 1357.54 | 10.26
318.15 K, x2 = 0.6929 | 1375.74 | 13.01
318.15 K, x2 = 0.814 | 1390.55 | 16.82
318.15 K, x2 = 0.9001 | 1409.63 | 20.35
323.15 K, x2 = 0 | 1023.19 | 1.18
323.15 K, x2 = 0.0493 | 1087.48 | 1.46
323.15 K, x2 = 0.1001 | 1135.51 | 1.72
323.15 K, x2 = 0.1526 | 1175.61 | 2.21
323.15 K, x2 = 0.2001 | 1208.72 | 2.7
323.15 K, x2 = 0.3001 | 1260.23 | 3.92
323.15 K, x2 = 0.4013 | 1298.21 | 5.18
323.15 K, x2 = 0.5004 | 1328.11 | 6.91
323.15 K, x2 = 0.5995 | 1352.41 | 9.02
323.15 K, x2 = 0.6929 | 1370.64 | 11.4
323.15 K, x2 = 0.814 | 1385.49 | 14.41
323.15 K, x2 = 0.9001 | 1404.58 | 17.27
